{
  "source": "paper PMC6895203",
  "about": "“Conformational pathway provides unique sensitivity to a synaptic mGluR” (Nature Communications, 2019)",
  "key": {"[1]": {"target": "T1, SNAP-mGluR7(K319C) homodimer (Rattus norvegicus, UniProt P35400, K319C)", "T1 construct": "HA (N); made in house; host or cells: HEK293T", "T1 sequence (P35400 35-915 K319C)": "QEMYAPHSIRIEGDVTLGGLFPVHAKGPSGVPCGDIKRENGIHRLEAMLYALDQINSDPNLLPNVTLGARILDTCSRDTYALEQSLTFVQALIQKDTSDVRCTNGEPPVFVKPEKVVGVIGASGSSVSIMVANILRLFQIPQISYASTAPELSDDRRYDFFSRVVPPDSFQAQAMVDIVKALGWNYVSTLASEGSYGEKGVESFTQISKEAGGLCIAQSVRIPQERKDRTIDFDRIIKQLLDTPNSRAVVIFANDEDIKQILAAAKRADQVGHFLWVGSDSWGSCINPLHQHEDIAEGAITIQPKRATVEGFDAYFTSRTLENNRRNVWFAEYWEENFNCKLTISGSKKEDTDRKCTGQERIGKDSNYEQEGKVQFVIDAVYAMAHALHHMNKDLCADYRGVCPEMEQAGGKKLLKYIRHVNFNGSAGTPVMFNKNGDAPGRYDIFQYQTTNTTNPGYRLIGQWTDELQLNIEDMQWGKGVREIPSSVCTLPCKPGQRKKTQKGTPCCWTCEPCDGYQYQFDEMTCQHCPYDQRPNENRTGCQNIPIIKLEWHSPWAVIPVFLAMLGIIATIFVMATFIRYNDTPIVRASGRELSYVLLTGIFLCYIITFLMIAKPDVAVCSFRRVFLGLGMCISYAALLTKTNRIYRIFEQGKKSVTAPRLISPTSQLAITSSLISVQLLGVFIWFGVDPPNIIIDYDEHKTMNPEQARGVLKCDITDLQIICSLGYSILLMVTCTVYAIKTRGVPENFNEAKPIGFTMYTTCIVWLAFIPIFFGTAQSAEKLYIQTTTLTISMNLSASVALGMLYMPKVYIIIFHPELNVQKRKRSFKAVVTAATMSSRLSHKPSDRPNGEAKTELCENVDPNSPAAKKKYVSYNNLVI", "assay": "smFRET on SNAP-mGluR7(K319C) homodimers conjugated to D-MAG-0", "type": "biochemical", "procedure": "smFRET was performed on purified SNAP-mGluR7(K319C) homodimers that were labeled with donor and acceptor dyes on the SNAP and D-MAG-0 on K319C in the D-MAG-0 activated state. […] Illumination was applied to the entire field of view using either a Polychrome V monochromator (TILL Photonics) through a 20× objective, or a Lambda DG4 high-speed wavelength switcher (Sutter Instruments) with 380 nm and 500 nm filters through a 40× objective. pClamp software was used for both data acquisition and control of illumination.\n(§1) (100 ms time resolution)."}, "[2]": {"target": "T2, CLIP-mGluR2/SNAP-mGluR7(K319C) heterodimer (Rattus norvegicus, UniProt P31421+P35400, K319C)", "T2 construct": "Flag (N); HA (N); made in house; host or cells: HEK293T", "T2 sequence (P31421 19-872)": "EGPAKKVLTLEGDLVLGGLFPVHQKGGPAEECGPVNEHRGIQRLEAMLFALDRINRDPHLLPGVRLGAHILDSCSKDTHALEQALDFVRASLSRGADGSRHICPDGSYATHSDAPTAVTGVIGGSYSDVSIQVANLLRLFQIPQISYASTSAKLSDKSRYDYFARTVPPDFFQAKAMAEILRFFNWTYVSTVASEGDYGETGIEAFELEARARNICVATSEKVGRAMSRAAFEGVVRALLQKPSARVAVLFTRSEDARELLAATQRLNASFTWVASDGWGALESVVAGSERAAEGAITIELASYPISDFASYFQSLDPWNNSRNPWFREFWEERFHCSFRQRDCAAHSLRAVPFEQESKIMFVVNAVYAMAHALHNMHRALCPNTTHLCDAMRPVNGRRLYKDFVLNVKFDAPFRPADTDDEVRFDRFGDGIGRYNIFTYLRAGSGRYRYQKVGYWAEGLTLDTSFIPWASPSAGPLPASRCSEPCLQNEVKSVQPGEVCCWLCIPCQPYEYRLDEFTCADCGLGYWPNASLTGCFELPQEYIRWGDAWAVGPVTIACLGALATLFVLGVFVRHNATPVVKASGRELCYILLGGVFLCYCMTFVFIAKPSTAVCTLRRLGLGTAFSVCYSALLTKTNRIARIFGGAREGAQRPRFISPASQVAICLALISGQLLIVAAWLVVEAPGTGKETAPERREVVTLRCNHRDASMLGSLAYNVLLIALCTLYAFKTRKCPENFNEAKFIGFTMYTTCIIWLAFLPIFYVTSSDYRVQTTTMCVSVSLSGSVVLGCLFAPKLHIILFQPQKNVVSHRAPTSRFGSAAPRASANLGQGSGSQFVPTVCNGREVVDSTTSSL", "T2 sequence (P35400 35-915 K319C)": "as the sequence (P35400 35-915 K319C) above", "assay": "smFRET on CLIP-mGluR2/SNAP-mGluR7(K319C) heterodimers with D-MAG-0 on mGluR7", "type": "biochemical", "conditions": "trans D-MAG-0 only on the mGluR7 subunit", "description": "(§2) Illumination was applied to the entire field of view using either a Polychrome V monochromator (TILL Photonics) through a 20× objective, or a Lambda DG4 high-speed wavelength switcher (Sutter Instruments) with 380 nm and 500 nm filters through a 40× objective. pClamp software was used for both data acquisition and control of illumination.\nas §1"}, "[3]": {"target": "T3, SNAP-mGluR2(F756D)/mGluR7 heterodimer (Rattus norvegicus, UniProt P31421+P35400, F756D)", "T3 construct": "HA (N); expressed in transfected cells; host or cells: HEK293 / HEK293T", "T3 sequence (P31421 19-872 F756D)": "as the sequence (P31421 19-872) above, with F738D counted along it", "T3 sequence (P35400 35-915)": "as the sequence (P35400 35-915 K319C) above, with C285K counted along it", "assay": "Whole-cell patch clamp of GIRK1 current, trans-activation in SNAP-mGluR2(F756D)/mGluR7", "type": "cell-based", "description": "We explored this further by examining trans-activation, whereby binding of ligand to one subunit activates G-protein interaction in the partner subunit[46],[47]. To specifically activate only the mGluR2 subunit of the mGluR2/7 heterodimer, we selectively attached a photoswitched tethered ligand to mGluR2. […] SNAP-mGluR2(F756D) was co-expressed with wild-type mGluR7 along with the GIRK1 channel.\nas §2"}, "[4]": {"target": "SNAP-mGluR2/SNAP-mGluR2 homodimer (mGluR2/2) (Rattus norvegicus, UniProt P31421)", "sequence (P31421 19-872)": "as the sequence (P31421 19-872) above", "assay": "smFRET on isolated immune-purified SNAP-mGluR2/2 dimers", "conditions": "10 nM DCG-IV", "from_the_text": "(§3) Receptors expressed in HEK293T cells were labeled with a mixture of SNAP-reactive donor and acceptor fluorophores, detergent solubilized, immune-purified and tethered by biotinylated secondary antibodies at low density to coverslips that were passivated with a lawn of polyethylene glycol[13]. We used single-molecule FRET (smFRET) in order to measure the absolute FRET levels and dynamic changes associated with ligand-induced conformational changes in the LBDs. We imaged the donor and acceptor dyes using total internal reflection fluorescence (TIRF) microscopy[13],[31]"}, "[5]": {"target": "CLIP-mGluR2/SNAP-mGluR7 heterodimer (mGluR2/7) (Rattus norvegicus, UniProt P31421+P35400)", "sequence (P31421 19-872)": "as above", "sequence (P35400 35-915)": "as the sequence (P35400 35-915 K319C) above, with C285K counted along it", "assay": "smFRET on isolated CLIP-mGluR2/SNAP-mGluR7 heterodimers", "conditions": "for effect on smFRET distribution: 0 glutamate, combination of mGluR2 NAM (11 µM Ro 64-5229 or 1.2 µM MNI-137) with mGluR7 NAM ([…] ADX 71743)"}, "SNAP-mGluR2(F756D)": {"target": "T4, SNAP-mGluR2(F756D) (Rattus norvegicus, UniProt P31421, F756D)", "T4 construct": "HA (N); expressed in transfected cells; host or cells: HEK293 / HEK293T", "T4 sequence (P31421 19-872 F756D)": "as the sequence (P31421 19-872) above, with F738D counted along it", "assay": "Whole-cell patch clamp of GIRK1 current, SNAP-mGluR2(F756D) expressed alone", "type": "cell-based", "conditions": "BGAG12 labeled, 380 nm", "description": "We explored this further by examining trans-activation, whereby binding of ligand to one subunit activates G-protein interaction in the partner subunit[46],[47]. To specifically activate only the mGluR2 subunit of the mGluR2/7 heterodimer, we selectively attached a photoswitched tethered ligand to mGluR2.\nas §2"}, "[6]": {"target": "SNAP-mGluR7/SNAP-mGluR7 homodimer (mGluR7/7) (Rattus norvegicus, UniProt P35400)", "sequence (P35400 35-915)": "as the sequence (P35400 35-915 K319C) above, with C285K counted along it", "assay": "smFRET on isolated immune-purified SNAP-mGluR7/7 dimers", "from_the_text": "as §3"}},
  "note": "Where “and” joins values, the source holds several entries; their conditions need not be identical. Equal values may be shown once. Entries after “also recorded” stand apart in the source; their conditions may differ.",
  "data": [
    {"compound": "NC(CC(CCC(=O)Nc1ccc(N=Nc2ccc(NC(=O)CN3C(=O)C=CC3=O)cc2)cc1)C(=O)O)C(=O)O", "note": "(mixture of isomers) [D-MAG-0, maleimide-azobenzene-glutamate]", "values": [
      {"measurement": "stabilization of activated conformation, fold more effective than saturating free glutamate", "setting": "[1]; trans D-MAG-0", "value": "approximately 5 fold"},
      {"measurement": "occupancy of the activated low FRET state", "setting": "[1]; trans D-MAG-0 on both subunits", "value": "~ 50%"},
      {"measurement": "time in the activated low-FRET state", "setting": "[2]", "value": "~ 90%"}
    ]},
    {"compound": "N[C@H](C(=O)O)C1[C@@H](C(=O)O)[C@@H]1C(=O)O", "note": "(some centres unmarked) [DCG-IV]", "values": [
      {"measurement": "Norm. (1 nM DCG-IV), Over 20% Photo", "setting": "[3]; 1 nM DCG-IV, summary of cells Over 20% Photo", "value": 0.04748},
      {"measurement": "Norm. (1 nM DCG-IV), Under 15% Photo", "setting": "[3]; 1 nM DCG-IV, summary of cells Under 15% Photo", "value": 0.01667},
      {"measurement": "Norm. (10 nM DCG-IV), Over 20% Photo", "setting": "[3]; 10 nM DCG-IV, summary of cells Over 20% Photo", "value": 0.2749},
      {"measurement": "Norm. (10 nM DCG-IV), Under 15% Photo", "setting": "[3]; 10 nM DCG-IV, summary of cells Under 15% Photo", "value": 0.22},
      {"measurement": "Norm. (100 nM DCG-IV), Over 20% Photo", "setting": "[3]; 100 nM DCG-IV, summary of cells Over 20% Photo", "value": 0.5816},
      {"measurement": "Norm. (100 nM DCG-IV), Under 15% Photo", "setting": "[3]; 100 nM DCG-IV, summary of cells Under 15% Photo", "value": 0.3011},
      {"measurement": "Norm. (1 uM DCG-IV)", "setting": "[3]; 1 uM DCG-IV normalised to 1 mM Glu, single cells", "value": "0.9403 and 0.9452 and 0.7554 and 0.9507"},
      {"measurement": "Norm. (1 uM DCG-IV), Over 20% Photo", "setting": "[3]; 1 uM DCG-IV, summary of cells Over 20% Photo", "value": 0.9454},
      {"measurement": "Norm. (1 uM DCG-IV), Under 15% Photo", "setting": "[3]; 1 uM DCG-IV, summary of cells Under 15% Photo", "value": 0.7554},
      {"measurement": "Norm. (10 uM DCG-IV)", "setting": "[3]; 10 uM DCG-IV normalised to 1 mM Glu, single cells", "value": 1},
      {"measurement": "Current, 10 uM DCG-IV", "setting": "[3]; 10 uM DCG-IV, single cells", "value": -498.53},
      {"measurement": "Norm. (10 uM DCG-IV), Over 20% Photo", "setting": "[3]; 10 uM DCG-IV, summary of cells Over 20% Photo", "value": 1},
      {"measurement": "DCG-IV GIRK concentration-response relation compared to mGluR2/2", "setting": "[3]; patch clamp, foot of the relation", "value": "left-shifted; also recorded: more sensitive"},
      {"measurement": "occupancy of the activated conformation", "setting": "[4]", "value": "~ 5%"},
      {"measurement": "activated conformation occupancy, fold greater than mGluR2/2", "setting": "[5]; 10 nM DCG-IV", "value": "~ 5 fold"},
      {"measurement": "occupancy of the activated conformation", "setting": "[5]; 10 nM DCG-IV", "value": "~ 25%"}
    ]},
    {"compound": "CCc1nc2c(o1)CC(c1ccc(C)cc1C)CC2=O", "note": "(centres unmarked) [ADX71743]", "values": [
      {"measurement": "effect on smFRET distribution", "setting": "[5]", "value": "narrowed the smFRET distribution and shifted it to the right"}
    ]},
    {"compound": "Nc1nc(OCc2ccc(CNC(=O)CCc3cn(CCOCCOCCOCCOCCOCCOCCOCCOCCOCCOCCOCCOCCC(=O)NCC(=O)Nc4ccc(/N=N/c5ccc(NC(=O)CCC[C@@H](C[C@H](N)C(=O)O)C(=O)O)cc5)cc4)nn3)cc2)c2nc[nH]c2n1", "note": "[BGAG12, benzylguanine azobenzene glutamate]", "values": [
      {"measurement": "photocurrent", "setting": "SNAP-mGluR2(F756D)", "value": "no photocurrent"}
    ]},
    {"compound": "MNI-137", "values": [
      {"measurement": "effect on smFRET distribution", "setting": "[5]", "value": "narrowed the smFRET distribution and shifted it to the right"}
    ]},
    {"compound": "N[C@@H](CCP(=O)(O)C(O)c1ccc(OCC(=O)O)cc1)C(=O)O", "note": "(some centres unmarked) [LSP4-2022]", "values": [
      {"measurement": "smFRET traces", "setting": "[6]; 20 μM LSP4-2022", "value": "frequent transitions to the low FRET activated conformation"},
      {"measurement": "normalized low FRET area (Supplemental Figure 2a), mGluR7 LSP4", "setting": "[6]; agonist 0.003 (M)", "value": 1},
      {"measurement": "normalized low FRET area (Supplemental Figure 2a), mGluR7 LSP4", "setting": "[6]; agonist 1.00E-03 (M)", "value": 0.8692},
      {"measurement": "normalized low FRET area (Supplemental Figure 2a), mGluR7 LSP4", "setting": "[6]; agonist 1.00E-06 (M)", "value": 0.03798},
      {"measurement": "normalized low FRET area (Supplemental Figure 2a), mGluR7 LSP4", "setting": "[6]; agonist 1.00E-07 (M)", "value": 0.02088},
      {"measurement": "normalized low FRET area (Supplemental Figure 2a), mGluR7 LSP4", "setting": "[6]; agonist 2.00E-05 (M)", "value": 0.3163},
      {"measurement": "receptor occupancy at 1000 µM", "setting": "[6]; read-out: occupancy of the activated conformation", "value": "> 50", "unit": "%"},
      {"measurement": "receptor occupancy at 3000 µM", "setting": "[6]; read-out: occupancy of the low FRET conformation", "value": "~65", "unit": "%"},
      {"measurement": "efficacy, fold greater than that of glutamate", "setting": "[6]; smFRET", "value": "at least 6 fold"},
      {"measurement": "shift of smFRET distribution", "setting": "[5]; 1 µM LSP4-2022", "value": "slightly more than half-way toward the activated low FRET state"},
      {"measurement": "activation", "setting": "[5]; 1 mM LSP4-2022", "value": "almost complete"},
      {"measurement": "apparent affinity of mGluR7 subunit, fold higher than when partnered with another mGluR7", "setting": "[5]; smFRET", "value": "approximately 1000 fold"}
    ]},
    {"compound": "Clc1cccc(Cl)c1/C(=C/n1cncn1)OC1CCCCCC1", "note": "[Ro 64-5229]", "values": [
      {"measurement": "effect on smFRET distribution", "setting": "[5]", "value": "narrowed the smFRET distribution and shifted it to the right"}
    ]}
  ]
}
